Consider 15 compounds from US20210300943A1, “OGA INHIBITOR COMPOUNDS” (Janssen Pharmaceutica NV, priority 2018, published 2021).

For orientation: Emax means the maximal effect, on the per cent scale that the assay sets. In general, melting point refers to the temperature of the solid-liquid transition.

Where a name gives a salt, the structure may show the parent alone.

For one data set, the target named is T1, recombinant human Meningioma Expressed Antigen 5 (MGEA5), also referred to as O-GlcNAcase (OGA) (Homo sapiens, UniProt O60502).
T1 construct: Full length OGA enzyme was purchased at OnGene (cat #TP322411); purchased OnGene (so in the source)
T1 sequence (O60502 1-916): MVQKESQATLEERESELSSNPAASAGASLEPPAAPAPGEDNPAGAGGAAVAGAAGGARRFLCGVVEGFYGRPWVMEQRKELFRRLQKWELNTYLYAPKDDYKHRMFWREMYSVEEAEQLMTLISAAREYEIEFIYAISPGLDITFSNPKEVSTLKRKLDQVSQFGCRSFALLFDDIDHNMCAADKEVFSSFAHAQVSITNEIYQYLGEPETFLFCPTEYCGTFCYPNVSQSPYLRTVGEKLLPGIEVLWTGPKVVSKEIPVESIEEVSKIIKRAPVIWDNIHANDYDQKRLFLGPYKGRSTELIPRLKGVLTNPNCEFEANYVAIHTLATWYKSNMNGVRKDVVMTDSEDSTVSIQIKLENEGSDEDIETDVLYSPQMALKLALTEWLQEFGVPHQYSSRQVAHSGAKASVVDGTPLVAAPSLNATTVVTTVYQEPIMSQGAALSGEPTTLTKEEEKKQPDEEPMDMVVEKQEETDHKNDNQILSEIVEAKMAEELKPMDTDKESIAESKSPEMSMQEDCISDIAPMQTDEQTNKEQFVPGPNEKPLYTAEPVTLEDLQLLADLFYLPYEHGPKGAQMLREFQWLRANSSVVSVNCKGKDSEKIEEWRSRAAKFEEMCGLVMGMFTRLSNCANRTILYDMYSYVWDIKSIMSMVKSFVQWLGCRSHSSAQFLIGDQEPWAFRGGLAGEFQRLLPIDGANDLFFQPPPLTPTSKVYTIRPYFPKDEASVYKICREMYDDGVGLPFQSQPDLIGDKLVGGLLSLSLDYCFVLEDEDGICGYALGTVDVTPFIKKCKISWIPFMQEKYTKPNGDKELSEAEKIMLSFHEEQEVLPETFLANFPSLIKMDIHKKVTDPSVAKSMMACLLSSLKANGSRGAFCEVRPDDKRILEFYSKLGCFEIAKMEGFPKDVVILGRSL
The data set is described as follows: OGA biochemical assay (inhibition of FM-GlcNAc hydrolysis, fluorescence). The following applies: maximal effect, read-out: Enzymatic Emax (%). In outline: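 Full-length recombinant OGA (2 nM) pre-incubated with compound 60 min at room temperature, then FM-GlcNAc (100 µM final) added in citrate/phosphate buffer pH 7.2 with 0.005% Tween-20. After 6 h at room temperature, stopped with carbonate pH 11.0; fluorescein read at 485/538 nm; IC50 and Hill coefficient from curve fit.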
Turning to `Cc1cc(C[C@H]2CCCN(C(C)c3ccc4c(c3)OCCN4C)C2)cc(C)n1` (mixture of isomers) [Product 49], the maximal response (Emax) stood at 103%.
The same measure, in the same setting: the same measure for `COc1cc(C2CCCN(C(C)c3ccc4c(n3)OCCO4)C2)cc(C)n1` (centres unmarked) [Product 7]: 103%; for `Cc1cc(C2CCCN(C(C)c3nc4c(cc3F)OCCO4)C2)c(F)c(C)n1` (centres unmarked) [Product 189]: 100%.
As to `COc1cc(CN[C@H]2CCCN(C(C)c3ccc4c(n3)OCCO4)C2)cc(C)n1` (some centres unmarked) [Product 198], the Emax came to 94%.
Turning to `Cc1cc(C[C@H]2CCCN(Cc3ccc4c(c3)OCCN4C)C2)cc(C)n1` [Product 48], the Emax came out at 93%.
Same read-out and setting: the same measure for `Cc1cc(OC2CCCN(C(C)c3cc4c(cc3F)OCCO4)C2)cc(C(F)(F)F)n1` (centres unmarked) [Product 15]: 103%; for `Cc1cc(C[C@H]2CCCN(C(C)c3cc4c(cc3F)OCCO4)C2)cc(C(F)(F)F)n1` (mixture of isomers) [Product 68]: 102%; for `Cc1cc(OC[C@@H]2CCCN([C@H](C)c3ccc4c(n3)OCCO4)C2)cc(C)n1` (relative stereo) [Product 109]: 95%.
Turning to `Cc1cc(C[C@H]2CCCN(C(C)c3ccc4c(c3)OCC4)C2)cc(C)n1` (mixture of isomers) [Product 47], the Emax came out at 103%.

The data set is the same for the next values; noted with them: read-out: Enzymatic hOGA, pIC50 (converted).
`Cc1cc(C[C@H]2CCCN(C(C)c3ccc4c(c3)OCCN4C)C2)cc(C)n1` (mixture of isomers) [Product 49]: the IC50 was 0.126 µM.
Consider `COc1cc(C2CCCN(C(C)c3ccc4c(n3)OCCO4)C2)cc(C)n1` (centres unmarked) [Product 7], for which the IC50 was 0.0126 µM.
As for `Cc1cc(C2CCCN(C(C)c3nc4c(cc3F)OCCO4)C2)c(F)c(C)n1` (centres unmarked) [Product 189], the IC50 was 0.00794 µM.
`COc1cc(CN[C@H]2CCCN(C(C)c3ccc4c(n3)OCCO4)C2)cc(C)n1` (some centres unmarked) [Product 198]: the IC50 is 0.0398 µM.
For the compound `Cc1cc(C[C@H]2CCCN(Cc3ccc4c(c3)OCCN4C)C2)cc(C)n1` [Product 48], the IC50 was 0.501 µM.
The same measure, in the same setting: the same measure for `Cc1cc(OC2CCCN(C(C)c3cc4c(cc3F)OCCO4)C2)cc(C(F)(F)F)n1` (centres unmarked) [Product 15]: 0.02 µM; for `Cc1cc(C[C@H]2CCCN(C(C)c3cc4c(cc3F)OCCO4)C2)cc(C(F)(F)F)n1` (mixture of isomers) [Product 68]: 0.00631 µM; for `Cc1cc(OC[C@@H]2CCCN([C@H](C)c3ccc4c(n3)OCCO4)C2)cc(C)n1` (relative stereo) [Product 109]: 0.251 µM.
On to `Cc1cc(C[C@H]2CCCN(C(C)c3ccc4c(c3)OCC4)C2)cc(C)n1` (mixture of isomers) [Product 47], for which the IC50 was 0.00398 µM.

The target in another data set is T2, OGA (Homo sapiens, UniProt O60502).
T2 construct: endogenous in cells; host or cells: HEK293 cells inducible for P301L mutant human Tau (2N4R)
T2 sequence (O60502 1-916): T1 sequence (O60502 1-916)
The data set can be described thus: OGA cellular assay (ICC detection of O-GlcNAcylated proteins in HEK293 cells inducible for P301L mutant human Tau). The format is cell-based. The following applies: HEK293, HEK293 cells inducible for P301L mutant human Tau, maximal effect; Thiamet G 200 uM as maximum. The essentials:
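HEK293 cells inducible for P301L Tau, in low-glucose assay medium, treated 6 h with compound at 0.2% DMSO. O-GlcNAcylated proteins detected by CTD110.6 immunostaining, imaged at 488 nm with Hoechst nuclear counts for toxicity. IC50 from non-linear regression, 200 uM Thiamet G as maximum.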
Compound `COc1cc(C2CCCN(C(C)c3ccc4c(n3)OCCO4)C2)cc(C)n1` (centres unmarked) [Product 7] came in with an Emax of 77%.
`Cc1cc(C2CCCN(C(C)c3nc4c(cc3F)OCCO4)C2)c(F)c(C)n1` (centres unmarked) [Product 189] returned an Emax of 88%.
The same measure, in the same setting: the same measure for `COc1cc(CN[C@H]2CCCN(C(C)c3ccc4c(n3)OCCO4)C2)cc(C)n1` (some centres unmarked) [Product 198]: 82%; for `Cc1cc(C[C@H]2CCCN(Cc3ccc4c(c3)OCCN4C)C2)cc(C)n1` [Product 48]: 5%; for `Cc1cc(OC2CCCN(C(C)c3cc4c(cc3F)OCCO4)C2)cc(C(F)(F)F)n1` (centres unmarked) [Product 15]: 16%.
Turning to `Cc1cc(C[C@H]2CCCN(C(C)c3cc4c(cc3F)OCCO4)C2)cc(C(F)(F)F)n1` (mixture of isomers) [Product 68], the maximum response (Emax) came to 79%.
On the same count and under the same terms, the same measure for `Cc1cc(OC[C@@H]2CCCN([C@H](C)c3ccc4c(n3)OCCO4)C2)cc(C)n1` (relative stereo) [Product 109]: 37%; for `Cc1cc(C[C@H]2CCCN(C(C)c3ccc4c(c3)OCC4)C2)cc(C)n1` (mixture of isomers) [Product 47]: 81%.

Still in this data set, the particulars now being: HEK293 cells inducible for P301L mutant human Tau, 6 hours incubation; read-out: Cellular hOGA; pEC50 (converted).
As to `Cc1cc(C[C@H]2CCCN(C(C)c3ccc4c(c3)OCCN4C)C2)cc(C)n1` (mixture of isomers) [Product 49], the EC50 was greater than 1 µM.
Regarding `COc1cc(C2CCCN(C(C)c3ccc4c(n3)OCCO4)C2)cc(C)n1` (centres unmarked) [Product 7], the EC50 is 0.1 µM.
Consider `Cc1cc(C2CCCN(C(C)c3nc4c(cc3F)OCCO4)C2)c(F)c(C)n1` (centres unmarked) [Product 189], for which the EC50 is 0.0158 µM.
As for `COc1cc(CN[C@H]2CCCN(C(C)c3ccc4c(n3)OCCO4)C2)cc(C)n1` (some centres unmarked) [Product 198], the EC50 is 0.398 µM.
`Cc1cc(C[C@H]2CCCN(Cc3ccc4c(c3)OCCN4C)C2)cc(C)n1` [Product 48]: the EC50 is greater than 1 µM.
The same measure, in the same setting: to `Cc1cc(OC2CCCN(C(C)c3cc4c(cc3F)OCCO4)C2)cc(C(F)(F)F)n1` (centres unmarked) [Product 15] belongs greater than 1 µM.
Still for that read-out and setting: the same measure for `Cc1cc(C[C@H]2CCCN(C(C)c3cc4c(cc3F)OCCO4)C2)cc(C(F)(F)F)n1` (mixture of isomers) [Product 68]: 0.0398 µM; for `Cc1cc(OC[C@@H]2CCCN([C@H](C)c3ccc4c(n3)OCCO4)C2)cc(C)n1` (relative stereo) [Product 109]: greater than 1 µM.
Regarding `Cc1cc(C[C@H]2CCCN(C(C)c3ccc4c(c3)OCC4)C2)cc(C)n1` (mixture of isomers) [Product 47], the EC50 is 0.0158 µM.

Tested on in the next data set: not given
Assay: not given
Conditions: not given
The compound `COc1cc(NCC2CCCN(C(C)c3ccc4c(c3)OCC4)C2)cc(C)n1` (centres unmarked) (as salt: HCl) [Product 30] had a melting point of 261.3 °C.
On the same count and under the same terms, to `COc1cc(NCC2CCCN(C(C)c3ccc4c(n3)OCCO4)C2)cc(C)n1` (centres unmarked) (as salt: HCl) [Product 23] belongs 266.7 °C.
As to `Cc1cc(NCC2CCCN(C(C)c3cc4c(cc3F)OCCO4)C2)cc(C(F)(F)F)n1` (centres unmarked) (as salt: HCl) [Product 99], the melting point was 235.3 °C.
`Cc1cc(NCC2CCCN(C(C)c3ccc4c(c3)OCC4)C2)cc(C)n1` (centres unmarked) (as salt: HCl) [Product 22] registered a melting point of 248.4 °C.
Still for that read-out and setting: to `Cc1cc(NCC2CCCN(C(C)c3ccc4c(n3)OCCO4)C2)cc(C)n1` (centres unmarked) (as salt: HCl) [Product 21] belongs 193 °C.
Regarding `COc1cc(NCC2CCCN(C(C)c3cc4c(cc3F)OCCO4)C2)cc(C)n1` (centres unmarked) (as salt: HCl) [Product 38], the melting point turned out to be 164.7 °C.
